Source: patent US9242937B2, “Pharmaceutically active disubstituted pyridine derivatives” (Bayer Intellectual Property GmbH, priority 2011, dated 2016)

Experiments:
Type in all cases: biochemical
[1] = target: T1, CDK4/CyclinD1 (Homo sapiens, UniProt P11802); assay: Lance Ultra KinaSelect Assay, CDK4; settings: ULight MBP substrate, ATP 90 μM; read-out: CDK4 LANCE assay (activity range), IC50
T1 construct: purchased Invitrogen
Protocol: (§1) This protocol describes how the Lance Ultra KinaSelect Assay was performed to determine half maximal inhibitory concentration (IC50) of compounds of general formula (I) and CDK/Cyclin complexes. The principle behind this enzymatic assay is based upon the phosphorylation of the ULight-Peptide Substrat. It is detected by using a specific EU-labeled anti-phospho peptide antibody. The binding of the Eu-labeled anti-phospho peptide antibody to the phosphorylated ULight labeled peptide gives rise to a FRET-signal. Binding of an inhibitor to the kinase prevents phosphorylation of the ULight-MBP Substrat, resulting in a loss of FRET.
(§2) The compounds of general formula (I) summarized in Table 5 were diluted from a 10 mM DMSO stock solution 1:10 in a total volume of 15 μL DMSO. […] Positive and negative controls were calculated from at least 8 different sample wells. […] Before reading, 10 μL the detection buffer (Lance Detection Buffer 1×; EDTA: […]; Eu-Anti-P-MBP: see Table 3) was added. The FRET signal was measured at 340 nm excitation, 665 nm and 615 nm emission (for the kinase tracer and LanthaScreen Eu-AB, respectively) with an Envision spectrophotometer (Perkin Elmer, Waltham, Mass., USA) with 50 μs delay and 300 μs integration time. IC50 values were determined from the sigmoidal dose response curves with the software Quattro Workflow (Quattro GmbH, Munich, Germany).

[2] = target: T2, CDK1/CyclinB1 (Homo sapiens, UniProt P06493); assay: Lance Ultra KinaSelect Assay, CDK1; settings: ULight MBP substrate, ATP 20 μM; read-out: CDK1 LANCE assay (activity range), IC50
T2 construct: purchased Carna
T2 sequence (P06493 whole entry): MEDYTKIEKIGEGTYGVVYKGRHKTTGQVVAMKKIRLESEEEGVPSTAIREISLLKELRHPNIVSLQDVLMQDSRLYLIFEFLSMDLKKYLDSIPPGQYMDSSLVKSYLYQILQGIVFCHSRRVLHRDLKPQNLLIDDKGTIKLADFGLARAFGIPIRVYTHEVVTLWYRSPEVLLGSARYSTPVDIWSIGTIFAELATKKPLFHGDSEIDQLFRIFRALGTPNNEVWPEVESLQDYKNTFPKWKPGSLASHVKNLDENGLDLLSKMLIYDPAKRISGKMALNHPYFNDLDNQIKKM
T2 sequence (P14635 whole entry partner): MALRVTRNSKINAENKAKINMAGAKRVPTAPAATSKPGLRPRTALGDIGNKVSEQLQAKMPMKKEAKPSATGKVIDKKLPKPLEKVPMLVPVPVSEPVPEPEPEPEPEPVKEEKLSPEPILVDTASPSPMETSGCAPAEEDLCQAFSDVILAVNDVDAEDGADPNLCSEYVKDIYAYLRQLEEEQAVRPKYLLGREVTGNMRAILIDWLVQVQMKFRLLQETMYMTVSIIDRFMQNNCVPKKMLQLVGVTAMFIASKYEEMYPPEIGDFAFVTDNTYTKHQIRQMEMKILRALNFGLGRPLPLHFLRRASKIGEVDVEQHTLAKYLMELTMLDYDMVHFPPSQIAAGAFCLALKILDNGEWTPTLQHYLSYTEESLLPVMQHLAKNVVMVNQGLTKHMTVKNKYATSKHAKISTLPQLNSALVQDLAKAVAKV
Protocol: as §1, §2

[3] = target: T3, CDK6/CyclinD3 (Homo sapiens, UniProt Q00534); assay: Lance Ultra KinaSelect Assay, CDK6; settings: ULight MBP substrate, ATP 55 μM; read-out: CDK6 LANCE assay (activity range), IC50
T3 construct: purchased Carna
T3 sequence (Q00534 whole entry): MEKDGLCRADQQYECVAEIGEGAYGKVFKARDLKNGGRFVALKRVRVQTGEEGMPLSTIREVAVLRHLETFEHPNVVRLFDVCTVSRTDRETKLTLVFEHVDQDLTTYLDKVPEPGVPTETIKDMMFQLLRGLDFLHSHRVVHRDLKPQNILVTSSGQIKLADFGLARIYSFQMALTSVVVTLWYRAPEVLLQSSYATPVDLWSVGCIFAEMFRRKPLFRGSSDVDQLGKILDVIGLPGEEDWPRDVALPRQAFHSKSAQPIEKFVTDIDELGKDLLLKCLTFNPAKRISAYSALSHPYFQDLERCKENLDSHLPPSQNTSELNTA
T3 sequence (P30281 whole entry partner): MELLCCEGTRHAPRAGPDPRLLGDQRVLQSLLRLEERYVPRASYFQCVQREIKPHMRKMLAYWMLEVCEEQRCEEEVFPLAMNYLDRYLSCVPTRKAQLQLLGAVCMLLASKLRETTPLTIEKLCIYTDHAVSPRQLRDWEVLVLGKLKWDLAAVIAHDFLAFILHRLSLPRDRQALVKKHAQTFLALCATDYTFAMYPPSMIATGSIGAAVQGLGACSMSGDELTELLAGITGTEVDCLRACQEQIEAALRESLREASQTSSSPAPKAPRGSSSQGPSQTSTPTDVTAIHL
Protocol: as §1, §2

T1 sequence (P11802 whole entry): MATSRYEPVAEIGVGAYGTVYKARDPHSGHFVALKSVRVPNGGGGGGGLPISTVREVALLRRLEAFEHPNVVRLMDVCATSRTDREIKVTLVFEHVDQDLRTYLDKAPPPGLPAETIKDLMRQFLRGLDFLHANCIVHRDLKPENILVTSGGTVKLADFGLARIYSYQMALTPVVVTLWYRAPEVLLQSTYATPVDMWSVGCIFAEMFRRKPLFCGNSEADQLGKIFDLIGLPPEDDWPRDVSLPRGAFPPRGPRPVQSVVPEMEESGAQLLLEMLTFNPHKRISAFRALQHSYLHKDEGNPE
T1 sequence (P24385 whole entry partner): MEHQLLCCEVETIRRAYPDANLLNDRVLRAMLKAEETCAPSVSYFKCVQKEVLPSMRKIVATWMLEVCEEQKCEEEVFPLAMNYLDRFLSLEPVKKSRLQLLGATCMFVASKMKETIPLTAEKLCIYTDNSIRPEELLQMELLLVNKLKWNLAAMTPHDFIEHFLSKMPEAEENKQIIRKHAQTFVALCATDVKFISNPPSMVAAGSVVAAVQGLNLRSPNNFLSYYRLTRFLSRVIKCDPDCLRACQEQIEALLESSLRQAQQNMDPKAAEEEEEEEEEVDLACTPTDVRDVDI

| IC50 [1] [µM] | IC50 [2] [µM] | IC50 [3] [µM] | Compound |
| --- | --- | --- | --- |
| 1 to 10 | 1 to 10 | > 10 | COc1cc(F)ccc1-c1ccnc(Nc2cccc(CS(N)(=O)=O)c2)c1 [Compound G1, [3-((4-(4-Fluoro-2-methoxyphenyl)pyridin-2-yl)amino)phenyl]-methanesulfonamide] |
| > 10 | 1 to 10 | > 10 | COc1ccccc1-c1ccnc(Nc2cccc(S(N)(=O)=O)c2)c1 [Compound D1, 3-[(4-(2-Methoxyphenyl)pyridin-2-yl)amino]benzenesulfonamide] |
